Reference: patent US5591773A, “Inhibition of cataract formation, diseases resulting from oxidative stress, and HIV replication by caffeic acid esters” (priority 1994, dated 1997)
“Also recorded” adds a separate entry of the source.

Columns and labels:
[1] = tested on: Fischer cloned rat embryo fibroblasts; settings: cited from earlier work
HRPO = assay: Degradation of H2O2 / inhibition of HRPO; assay type: biochemical; settings: unpublished results of Bhimani and Frenkel
[2] = tested on: oxidative burst of human PMNs; assay: H2O2 formation by TPA-stimulated human PMNs (phenol red/HRPO); assay type: cell-based
Protocol: FIG. 4. CAPE-mediated inhibition of H2 O2 formation by TPA-stimulated human PMNs. Cells were incubated with CAPE (0.05-5 nmol/ml) and TPA (25 pmol/2.5×10^5 PMNs/ml) at 37° C. for 30 min, and H2 O2 was determined by the phenol red/HRPO assay, as described in the "Experimental Details" Section, infra. Note the semilog scale. The results are presented as mean values ±SE.
A) Human PMNS Blood was obtained from healthy volunteers and collected into EDTA-containing tubes. Red cells were removed by dextran sedimentation and lysis with hypotonic ammonium chloride, as described previously (5). Cells were washed in glucose-containing basic salt solution (137 mM NaCl, 5 mM KCl, 8.5 mM Na2 HPO4 -NaH2 PO4, 0.8 mM MgSO4, 5 mM glucose, pH 7.4) and suspended at a ratio of 10 ml of the initial blood volume/ml basic salt solution. Whole WBC population was used as a source of PMNs, with PMN numbers used per assay being adjusted according to the results of Wright's staining of the peripheral blood.
PMNs (2.5×10^5 /ml) were incubated with CAPE (0.05-5.0 nmol/ml) and/or TPA (25 pmol/ml) at 37° C. for 30 min in the presence of phenol red (100 μg) and HRPO (50 μg) (54). After the reaction was stopped with catalase (50 μg/ml), the pH was adjusted to 12.5 with NaOH, the mixture was centrifuged, and the absorbance of the supernatant was determined at 598 nm. […]

O=C(/C=C/c1ccc(O)c(O)c1)OCCc1ccccc1 [CAPE, Caffeic acid phenethyl ester]
inhibition of adenovirus type 5 E1A-mediated transformation; cytotoxicity (in words) [1]: inhibit the transformation mediated by adenovirus type 5 E1A; also recorded: more cytotoxic to transformed Fischer cloned rat embryo fibroblasts than to wild type cells
degradation of H2O2 or inhibition of HRPO (in words) (HRPO): does not degrade H2 O2 or inhibit HRPO
IC50 ([2]; 0.5 h, human PMNs 2.5×10^5/ml, TPA 25 pmol/ml, 37° C., 30 min, read-out: 50% inhibition of oxidative burst of PMNs (H2O2 production)): 500 nM
inhibition of oxidative burst (in words) ([2]; CAPE 0.05-5.0 nmol/ml): inhibited the oxidative burst of PMNs (as measured by H2 O2 production) in a dose-dependent manner
